Test results: US20080269313A1, “Prolyl Oligopeptidase Inhibitors Ameliorating Recovery From Brain Trauma” (ORION CORPORATION, priority 2003, published 2008)

Key:
[1] = tested on: experimental models of senile dementia; settings: Toide et al. 1997; cited from earlier work
[2] = tested on: male rats with the focal forebrain ischemia; assay: limb-placing test after focal forebrain ischemia (middle cerebral artery occlusion 90 min); assay type: in vivo, rat; settings: for difference in limb-placing test between JTP-4819 and control groups: ischemic rats vs vehicle control
Method: The effects of JTP-4819 on the recovery in the use of limbs assessed by the limb placing task in male rats with the focal forebrain ischemia.
The experiment was carried out on male Spraque-Dawley rats (about 200 g), bred in B&K, Sweden. The rats were allowed to acclimatized for one week before the start of teaching of behavioural testing and subsequent operation (Table 1). During acclimatization period, the rats were housed in solid bottom Macrolon type III cages with stainless steel mesh lids (at maximum five rats in each cage). The rats had free access to standard certified pelleted food (RM1 Maintenance Expanded SQC; Special Diet Services, Essex, UK) and water. After operation, the rats were housed singly in a Macrolon cage. Some food pellets were put into a cage in order to enable to their feeding. On the second post-operative day and thereafter, the rats were housed (maximum 10 rats in one cage) in the enriched environment (Enriched rat cage system, 03-RS-R, Scanbur A/S, Lellinge, Denmark) where the floor area of one cage was 4250 cm^2. […] Tap water and pelleted food were freely available.
Anesthesia was initiated with 4-5% halothane (30% oxygen, 65% nitrous oxide) and maintained throughout the operation with 0.5-1.5% halothane delivered via a nose cone. Body temperature was maintained at 37.0±0.5° C. using a thermoregulatory heating unit with homeothermic blanket (HB 101/2 RS, Letica Scientific Instruments). Heparin (40 IU, i.v.) was given just before the operation to prevent possible complications caused by blood coagulation. The right common carotid artery was exposed through a midline ventral cervical incision, and carefully separated from the adjacent sympathetic nerves under a stereomicroscope. The common carotid artery and internal carotid artery were then clamped with microvascular clips. The external carotid artery was ligated distally with a nylon suture and the artery was cut for induction of suture. A heparinized nylon suture (Ø0.28 mm, rounded tip) was introduced into the stump of the external carotid artery, the internal carotid artery clip was removed, and the suture was advanced into the internal carotid artery until it passed beyond the origin of the middle cerebral artery. After occlusion for 90 min, the suture was removed to allow reperfusion in the middle cerebral artery territory. The stump of the external carotid artery was electrocoagulated and the common carotid artery clip was removed. The cervical incision was closed with silk sutures after the application of 2% lidocain gel (Xylocaln® 2%, Astra Finland). In sham-operated rats, the right common carotid artery was exposed and the external carotid artery was electrocoagulated without introducing the filament into the internal carotid artery. Animals were given 0.9% NaCl (i.p.) during the first-post-operative days (days 0 and 1). They were housed singly in a Macrolon cage.
JTP-4819 was dissolved in sterile saline. The drug was injected 1 ml/kg intraperitoneally (i.p.). […] On the testing day 2, the drug was injected after the rats were tested in a limb placing test and assigned to groups. On days 3-14, the rats were treated even if they were not tested in a limb placing test Table 1). In those days (6, 8, 10, 12, 13), the rats were injected in the afternoon, about 24 hours after the preceding injection. […]
On the second day after operation, behavioral deficits of rats were assessed by using a limb-placing test (De Ryck et al., 1989). […]

O=C(CO)[C@@H]1CCCN1C(=O)[C@@H]1CCCN1C(=O)NCc1ccccc1 [JTP-4819]
cognition effects [1]: cognition improving effects
difference in limb-placing test between JTP-4819 and control groups ([2]; 1 μmol/kg i.p. daily, from day 5 to day 17 after ischemia): significant difference (p<0.05)
difference in limb-placing test between JTP-4819 and control groups ([2]; 9 μmol/kg i.p. daily, on day 3 and 9): significant difference (p<0.05)
recovery in limb-placing score as compared to vehicle treated rats (FIG. 1) ([2]; 0.9 or 9.0 μmol/kg intraperitoneally, especially the lower dose, day 5-17): augmented recovery
recovery in the use of limbs ([2]; daily systemic administration started after unilateral focal forebrain ischemia, rats): enhanced the recovery in the use of limbs
limb-placing test effect after the discontinuation of drug administration ([2]; lower dose of JTP-4819 (1 μmol/kg i.p.), after treatment days 2-14): amelioration effect also was seen
